Reference: US20240217970A1, “PHTHALIMIDO CEREBLON COMPLEX BINDERS AND TRANSCRIPTION FACTOR DEGRADERS AND METHODS OF USE” (DANA-FARBER CANCER INSTITUTE, INC., priority 2021, published 2024)

Key:
CRBN (NanoLuc-CRBN) = target: T1, CRBN (NanoLuc-CRBN) (Homo sapiens, UniProt Q96SW2); assay: Cellular CRBN NanoBRET engagement assay; format: cell-based; conditions: HEK293T cells stably expressing NanoLuc-CRBN; tracer 250 nM; two hours incubation
T1 construct: expressed in transfected cells; host or cells: HEK293T (lentiviral transduction, puromycin selection)
T1 sequence (Q96SW2 whole entry, species assumed): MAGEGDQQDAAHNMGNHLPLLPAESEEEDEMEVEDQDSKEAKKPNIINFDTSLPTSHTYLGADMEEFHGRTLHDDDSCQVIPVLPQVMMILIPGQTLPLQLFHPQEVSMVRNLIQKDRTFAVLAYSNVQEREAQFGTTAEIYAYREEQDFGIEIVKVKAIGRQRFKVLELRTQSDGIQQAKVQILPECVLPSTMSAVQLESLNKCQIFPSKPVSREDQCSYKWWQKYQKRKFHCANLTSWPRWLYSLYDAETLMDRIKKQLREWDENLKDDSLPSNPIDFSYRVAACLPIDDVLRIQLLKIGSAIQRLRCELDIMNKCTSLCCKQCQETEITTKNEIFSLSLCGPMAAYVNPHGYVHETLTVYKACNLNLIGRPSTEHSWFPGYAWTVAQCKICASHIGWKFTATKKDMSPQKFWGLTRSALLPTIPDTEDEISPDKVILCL
Description: HEK293T cells were transduced with lentivirus and put under puromycin selection (5 μg/mL) for two weeks to produce a cell line stably expressing CRBN with N-terminally fused NanoLuc luciferase (NanoLuc®-CRBN). After antibiotic selection, cells were cultured in DMEM (Gibco, Life Technologies™) supplemented with 10% FBS and 1 μg/mL puromycin to maintain stable NanoLuc®-CRBN expression.
To run the assay, cells were cultured to confluency in 10 cm^2 tissue culture treated plates (Corning®, 430165), washed with PBS and trypsinized at room temperature to detach from the cell culture plate. After 3-4 minutes, the trypsin was quenched with 5× volume DMEM media (Gibco, Life Technologies™) with 10% FBS and cells are collected by centrifugation (1000 rpm, 5 min). The supernatant was removed by vacuum aspiration and the pellet was then resuspended in Opti-MEM™ without phenol red. The density of this cell suspension was determined by diluting the cells 1:1 with trypan blue, then counting using a Countess™ II (Thermo Fischer Scientific) and then diluted to the required volume at 2×10^5 viable cells/mL in Opti-MEM™ I (Gibco, Life Technologies™). CRBN engagement tracer (stock at 10 μM in 31.25% PEG-400, 12.5 mM HEPES, pH 7.5, filtered using a 0.22 μm nitrocellulose membrane; final concentration in cell suspension for assay at 250 nM) was added to the suspension. Cells were then plated in a white/opaque cell culture treated 384-well plate (Corning®, 3570) at volume of 50 μL/well. After plating, the assay plate was centrifuged (500×g, 5 min) and covered in aluminum foil. Compounds for testing were added to the plate using D300e Digital Dispenser (HP) in duplicate 12-pt titrations from a 10 mM stock in DMSO, with DMSO normalized to 1% total volume. The plate was then placed in an incubator at 37° C., 5% CO2 for two hours. After incubation, the plate was removed and set on the bench to come to room temperature (˜10-15 min). The NanoLuc® substrate (500× solution)* and extracellular inhibitor (1500× solution)* were diluted in Opti-MEM™ I (Gibco, Life Technologies™) to prepare a 3× solution. This was then added to each well (25 μL/well). The plate was read on a Pherastar® FSX microplate reader with simultaneous dual emission capabilities to read 384-well plates at 450 and 520 nm. The NanoBRET™ ratio was calculated by dividing the signal at 520 nm by the signal at 450 nm for each sample. Duplicate points were averaged and plotted against [compound, M] to generate an ECso curve.

IKZF2 (Helios) = target: T2, IKZF2 (Helios) (Homo sapiens, UniProt Q96SW2+Q9UKS7); assay: HiBiT-IKZF2 degradation assay in MOLT4 cells; format: cell-based; conditions: for inhibition at 10 µM: MOLT-4, 10 μM; for DC50: concentration at which 50% of HiBiT-Helios degradation was achieved, read-out: Cellular Degradation - IKZF2 DC50
T2 construct: endogenous in cells; host or cells: MOLT4 (CRISPR/Cas knock-in of HiBiT at the endogenous IKZF2 locus)
T2 sequence (Q9UKS7 whole entry): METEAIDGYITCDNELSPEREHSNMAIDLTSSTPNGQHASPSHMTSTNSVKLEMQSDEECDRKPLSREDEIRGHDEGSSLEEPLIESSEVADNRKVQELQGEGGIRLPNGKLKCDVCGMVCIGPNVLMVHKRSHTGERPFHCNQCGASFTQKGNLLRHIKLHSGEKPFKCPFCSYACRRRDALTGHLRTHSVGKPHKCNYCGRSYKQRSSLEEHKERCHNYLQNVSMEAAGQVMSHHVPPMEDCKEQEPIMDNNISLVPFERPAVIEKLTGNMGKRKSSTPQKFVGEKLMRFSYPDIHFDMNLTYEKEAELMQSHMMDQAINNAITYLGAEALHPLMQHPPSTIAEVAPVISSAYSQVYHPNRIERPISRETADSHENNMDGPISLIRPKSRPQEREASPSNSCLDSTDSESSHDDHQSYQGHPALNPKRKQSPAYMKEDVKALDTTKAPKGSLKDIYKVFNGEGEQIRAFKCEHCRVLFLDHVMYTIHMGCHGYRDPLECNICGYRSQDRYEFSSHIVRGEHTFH
T2 sequence (Q96SW2 whole entry): as the sequence (Q96SW2 whole entry, species assumed) above
T2 sequence (Q16531 whole entry partner): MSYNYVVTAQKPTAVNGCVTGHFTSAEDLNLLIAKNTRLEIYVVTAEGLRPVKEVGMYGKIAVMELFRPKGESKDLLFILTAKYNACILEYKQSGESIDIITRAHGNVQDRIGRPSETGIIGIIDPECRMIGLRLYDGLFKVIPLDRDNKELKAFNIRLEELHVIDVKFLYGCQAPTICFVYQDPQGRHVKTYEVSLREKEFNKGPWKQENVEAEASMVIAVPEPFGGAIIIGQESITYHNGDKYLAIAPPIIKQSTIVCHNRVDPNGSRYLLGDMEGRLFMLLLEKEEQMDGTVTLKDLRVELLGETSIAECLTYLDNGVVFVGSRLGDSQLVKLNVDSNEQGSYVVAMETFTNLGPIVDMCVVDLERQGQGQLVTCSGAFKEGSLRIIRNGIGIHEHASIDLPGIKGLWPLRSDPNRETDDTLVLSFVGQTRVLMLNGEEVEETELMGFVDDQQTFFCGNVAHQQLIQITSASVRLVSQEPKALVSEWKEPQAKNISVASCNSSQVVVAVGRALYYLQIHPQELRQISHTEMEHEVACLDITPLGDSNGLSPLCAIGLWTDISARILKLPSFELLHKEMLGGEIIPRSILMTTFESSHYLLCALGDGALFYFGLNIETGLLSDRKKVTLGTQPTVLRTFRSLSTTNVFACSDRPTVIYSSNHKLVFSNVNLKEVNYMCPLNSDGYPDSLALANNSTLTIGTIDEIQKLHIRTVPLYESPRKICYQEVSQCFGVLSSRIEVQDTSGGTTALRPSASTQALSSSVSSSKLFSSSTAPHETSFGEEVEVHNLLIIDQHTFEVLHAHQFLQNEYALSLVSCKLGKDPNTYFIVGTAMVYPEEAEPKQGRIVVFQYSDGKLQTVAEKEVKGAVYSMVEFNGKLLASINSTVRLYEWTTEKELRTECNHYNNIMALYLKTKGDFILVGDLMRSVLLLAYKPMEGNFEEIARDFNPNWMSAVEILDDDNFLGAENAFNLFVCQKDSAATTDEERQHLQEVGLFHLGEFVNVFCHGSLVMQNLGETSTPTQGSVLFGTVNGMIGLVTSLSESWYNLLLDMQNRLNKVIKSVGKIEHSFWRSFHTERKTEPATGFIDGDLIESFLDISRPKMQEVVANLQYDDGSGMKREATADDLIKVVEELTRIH
Description: The HiBiT protein tagging system was applied to MOLT4 cells via a CRISPR/Cas-mediated insertion of the HiBiT peptide tag (Promega™) to the N-terminus of the IKZF2 gene locus (Neon™ Transfection System). The resulting HiBiT-Helios stable cell line was treated with inventive compounds 1-10 in triplicates following a 13-point concentration scheme ranging from 10 μM to 0.00026 μM. At the indicated timepoints, the Nano-Glo® HiBiT Lytic Detection system (Promega™) was utilized for detecting bioluminescence of the HiBiT tag in treated cells: the abundance of the tag is proportionate to the level of luminescence. Following normalization to DMSO, dose-response curves were plotted (GraphPad Prism) to determine the concentration points at which 50% of HiBiT-Helios degradation was achieved by each compound. The extent of degradation (range of luminescence) from the highest to lowest concentration points was calculated to determine Dmax.

| SMILES | IC50 (CRBN (NanoLuc-CRBN)) [nM] | inhibition at 10 µM (IKZF2 (Helios)) [%] | DC50 (IKZF2 (Helios)) [nM] |
| --- | --- | --- | --- |
| O=C1CCC(N2C(=O)c3ccc(C4(O)CCN(Cc5ccc6cc(-c7ccccc7)nn6c5)CC4)cc3C2=O)C(=O)N1 (stereo not shown) [Compound 1, 2-(2,6-dioxo-3-piperidyl)-5-[4-hydroxy-1-[(2-phenylpyrazolo[1,5-a]pyridin-6-yl)methyl]-4-piperidyl]isoindoline-1,3-dione] | 38 | 80 | 4.9 |
| COc1ccc(Oc2cccc(CN3CCC(O)(c4ccc5c(c4)C(=O)N(C4CCC(=O)NC4=O)C5=O)CC3)c2)cc1 (stereo not shown) [Compound 2] | 41 | 80 | 5.1 |
| O=C1CCC(N2C(=O)c3ccc(C4(O)CCN(Cc5cccc(Oc6ccc(Cl)cc6)c5)CC4)cc3C2=O)C(=O)N1 (stereo not shown) [Compound 3] | 54 | 79 | 8.8 |
| O=C1CCC(N2C(=O)c3ccc(C4(O)CCN(Cc5ccc(F)c(Oc6ccccc6)c5)CC4)cc3C2=O)C(=O)N1 (stereo not shown) [Compound 4] | 88 | 73 | 23 |
| N#Cc1ccc(Oc2cccc(CN3CCC(O)(c4ccc5c(c4)C(=O)N(C4CCC(=O)NC4=O)C5=O)CC3)c2)cc1 (stereo not shown) [Compound 5] | 24 | 77 | 4.3 |
| O=C1CCC(N2C(=O)c3ccc(C4(O)CCN(Cc5cccc(Oc6ccc(F)cc6)c5)CC4)cc3C2=O)C(=O)N1 (stereo not shown) [Compound 6] | < 2.6 | 77 | 7.3 |
| O=C1CCC(N2C(=O)c3ccc(C4(O)CCN(CC5CCOCC5)CC4)cc3C2=O)C(=O)N1 (stereo not shown) [Compound 7] | 56 | 55 | 55 |
| O=C1CCC(N2C(=O)c3ccc(C4(O)CCN(Cc5cccc(Nc6ccccn6)n5)CC4)cc3C2=O)C(=O)N1 (stereo not shown) [Compound 8] | 76 | 71 | 24 |
| O=C1CCC(N2C(=O)c3ccc(C4(O)CCN(Cc5cccc6ccccc56)CC4)cc3C2=O)C(=O)N1 (stereo not shown) [Compound 9] | 15 | 72 | 14 |
| COc1cccc(CN2CCC(O)(c3ccc4c(c3)C(=O)N(C3CCC(=O)NC3=O)C4=O)CC2)c1 (stereo not shown) [Compound 10] |  | 77 | 16 |
| O=C1CCC(N2C(=O)c3ccc(C4CCN(Cc5cccc(Nc6ccccn6)n5)CC4)cc3C2=O)C(=O)N1 (stereo not shown) [Compound 11] | 240 | 45 |  |
| O=C1CCC(N2C(=O)c3ccc(C4(O)CCN(Cc5cc(F)cc(F)c5)CC4)cc3C2=O)C(=O)N1 (stereo not shown) [Compound 12] |  | 76 | 61 |
| O=C1CCC(N2C(=O)c3ccc(C4(O)CCN(Cc5ccc(OC(F)F)cc5)CC4)cc3C2=O)C(=O)N1 (stereo not shown) [Compound 13] |  | 74 | 19 |
| O=C1CCC(N2C(=O)c3ccc(C4(O)CCN(Cc5ccccc5C(F)(F)F)CC4)cc3C2=O)C(=O)N1 (stereo not shown) [Compound 14] | 62 | 57 | 20 |
| O=C1CCC(N2C(=O)c3ccc(C4(O)CCN(Cc5cccc(Oc6ccccc6)c5)CC4)cc3C2=O)C(=O)N1 (stereo not shown) [Compound 15] | 31 | 76 | 4.2 |
| O=C1CCC(N2C(=O)c3ccc(C4(O)CCN(Cc5ccc(C(F)(F)F)cc5)CC4)cc3C2=O)C(=O)N1 (stereo not shown) [Compound 16] |  | 69 | 56 |
| O=C1CCC(N2C(=O)c3ccc(C4(O)CCN(Cc5ccc6ccccc6c5)CC4)cc3C2=O)C(=O)N1 (stereo not shown) [Compound 17, 2-(2,6-dioxo-3-piperidyl)-5-[4-hydroxy-1-(2-naphthylmethyl)-4-piperidyl]isoindoline-1,3-dione] | 200 | 80 | 13 |
| O=C1CCC(N2C(=O)c3ccc(C4(O)CCN(Cc5ccccc5)CC4)cc3C2=O)C(=O)N1 (stereo not shown) [Compound 18, 5-(1-benzyl-4-hydroxypiperidin-4-yl)-2-(2,6-dioxopiperidin-3-yl)isoindoline-1,3-dione] | 65 | 70 | 22 |
| O=C1CCC(N2C(=O)c3ccc(C4=CCN(Cc5ccccc5)CC4)cc3C2=O)C(=O)N1 (stereo not shown) [Compound 19, 5-(1-Benzyl-1,2,3,6-tetrahydropyridin-4-yl)-2-(2,6-dioxopiperidin-3-yl)isoindoline-1,3-dione] | 1700 | 30 |  |
| O=C1CCC(N2C(=O)c3ccc(C4CCN(Cc5ccccc5)CC4)cc3C2=O)C(=O)N1 (stereo not shown) [Compound 20] |  | 45 |  |
